# Experimental data: EPA's ToxRefDB 2
# How the values were obtained:
# rat [1] = details: Subchronic oral toxicity in rodents, sprague dawley, Gavage/Intubation, dose end: 6 week, group: systemic
# dog [2] = details: Subchronic oral toxicity in nonrodent, beagle, Gavage/Intubation, dose end: 6 week, group: systemic
# rat [3] = details: Combined chronic toxicity/carcinogenicity; fischer; Oral; Feed; dose end: 2 year; group: systemic; systemic / pathology microscopic / liver / degeneration + systemic / pathology microscopic / liver / hyperplasia + systemic / pathology …
# mouse [4] = details: Subchronic oral toxicity in rodents, b6c3f1, Feed, dose end: 13 week, group: systemic, systemic / in life observation / body weight / body weight
# rat [5] = details: Subchronic oral toxicity in rodents, fischer, Feed, dose end: 13 week, group: systemic
# mouse [6] = details: Carcinogenicity, b6c3f1, Oral, Feed, dose end: 2 year, group: systemic
# dog [7] = details: Chronic toxicity, beagle, Oral, Capsule, dose end: 40 week, group: systemic
# mouse [8] = details: Combined chronic toxicity/carcinogenicity; other; Oral; Gavage/Intubation; dose end: 10 month; group: systemic; systemic / pathology microscopic / liver / neoplastic nodule + systemic / pathology microscopic / liver / dysplasia
# rat [9] = details: Sub-acute repeat dose toxicity, wistar, Oral, Gavage/Intubation, dose end: 28 day
# rat [10] = details: Sub-acute repeat dose toxicity, other, Oral, Gavage/Intubation, dose end: 30 day
# rat [11] = details: Chronic toxicity, sprague dawley, Oral, Gavage/Intubation, dose end: 39 week, group: systemic
# hamster [12] = details: Subchronic oral toxicity in rodents, golden syrian, Feed, dose end: 13 week, group: systemic
# rat [13] = details: Subchronic oral toxicity in rodents, wistar, Feed, dose end: 90 day, group: systemic, systemic / hematology / erythrocyte (rbc) count differential / erythrocyte (rbc) + systemic / hematology / hematocrit (hct) / hematocrit (…
# dog [14] = details: Chronic toxicity, beagle, Oral, Capsule, dose end: 52 week, group: systemic
# rat [15] = details: Combined chronic toxicity/carcinogenicity, wistar, Oral, Feed, dose end: 104 week, group: systemic
# dog [16] = details: Subchronic oral toxicity in nonrodent, beagle, Capsule, dose end: 90 day, group: systemic
# hamster [17] = details: Subchronic oral toxicity in rodents, golden syrian, Feed, dose end: 90 day, group: systemic, systemic / clinical chemistry / cholesterol / cholesterol + systemic / clinical chemistry / creatinine / creatinine + systemic / clinical …
# rabbit = details: Prenatal developmental toxicity study; new zealand white; Oral; Gavage/Intubation; dose end: 19 GD; group: maternal; reproductive / reproductive performance / aborted / aborted + reproductive / reproductive performance / resorptions / resorptions + systemic…
# hamster [18] = details: Carcinogenicity, golden syrian, Oral, Feed, dose end: 80 week, group: systemic
# rat [19] = details: Prenatal developmental toxicity study, wistar, Oral, Gavage/Intubation, dose end: 16 GD
# rat [20] = details: Prenatal developmental toxicity study, wistar, Oral, Gavage/Intubation, dose end: 16 GD; remark: listed apart in the source
# [21] = systemic / clinical chemistry / bilirubin / total bilirubin + systemic / hematology / neutrophils / neutrophils + systemic / in life …
# [22] = systemic / in life observation / body weight / body weight + systemic / in life observation / body weight / body weight gain + systemic / in…
# [23] = systemic / in life observation / clinical signs / feces, discoloration + systemic / in life observation / clinical signs / salivation + …
# [24] = systemic / in life observation / clinical signs / salivation + systemic / organ weight / epididymis / absolute + systemic / organ weight / …
# [25] = systemic / in life observation / body weight / body weight
# [26] = systemic / in life observation / body weight / body weight + systemic / in life observation / food consumption / food consumption + systemic…
# [27] = systemic / pathology microscopic / liver / necrosis
# [28] = systemic / pathology microscopic / liver / necrosis + systemic / pathology microscopic / liver / adenoma/carcinoma combined + systemic / …
# [29] = systemic / in life observation / body weight / body weight gain + systemic / pathology gross / liver / fat vacuolation + systemic / …
# [30] = systemic / pathology microscopic / blood / [other] + systemic / clinical chemistry / alanine aminotransferase (alt/sgpt) / alanine …
# [31] = group: maternal, reproductive / reproductive performance / estrous cycle / abnormal
# [32] = group: systemic, systemic / clinical chemistry / albumin / albumin + systemic / clinical chemistry / cholesterol / cholesterol + systemic / clinical …
# [33] = group: systemic, systemic / clinical chemistry / cholesterol / cholesterol + systemic / clinical chemistry / thyroid stimulating hormone (thyrotropin) (tsh…
# [34] = group: maternal, reproductive / reproductive performance / estrous cycle / abnormal + reproductive / reproductive performance / estrous cycle / length
# [35] = group: maternal, reproductive / reproductive performance / estrous cycle / length
# [36] = group: systemic, systemic / clinical chemistry / follicle stimulating hormone (fsh) / follicle stimulating hormone (fsh) + systemic / in life observation / …
# [37] = group: systemic, systemic / organ weight / adrenal gland / relative to body weight + systemic / organ weight / ovary / relative to body weight + systemic / …
# [38] = systemic / organ weight / [other] / absolute + systemic / organ weight / [other] / relative to body weight + systemic / pathology gross / …
# [39] = systemic / in life observation / body weight / body weight gain + systemic / organ weight / liver / absolute + systemic / clinical chemistry…
# [40] = systemic / clinical chemistry / alanine aminotransferase (alt/sgpt) / alanine aminotransferase (alt/sgpt) + systemic / organ weight / liver…
# [41] = systemic / in life observation / body weight / body weight gain + systemic / in life observation / food consumption / food consumption + …
# [42] = systemic / clinical chemistry / aminopyrine-n-demethylase / aminopyrine-n-demethylase
# [43] = systemic / pathology microscopic / liver / adenoma + systemic / pathology microscopic / liver / hemangioma + systemic / pathology …
# [44] = systemic / pathology microscopic / ovary / sex cord stromal tumor, benign
# [45] = group: developmental, developmental / developmental malformation / bone / bipartite ossification + developmental / developmental malformation / bone / delayed …
# [46] = group: maternal, systemic / in life observation / food consumption / food consumption + systemic / in life observation / mortality / mortality + reproductive…
# [47] = group: developmental, developmental / developmental malformation / bone / incomplete ossification + developmental / developmental malformation / bone / [other] + …
# [48] = group: maternal, systemic / in life observation / body weight / body weight + systemic / in life observation / food consumption / food consumption + systemic…
structure (smiles),measurement,setting,value
N#Cc1ccc(N(CC(N)=O)CC(F)(F)F)cc1C(F)(F)F,LOAEL,rat [1]; [21],> 30 mg/kg/day
same,NOAEL,rat [1]; [21],≥ 30 mg/kg/day
same,LEL,rat [1]; [22],1 mg/kg/day
same,NEL,rat [1]; [22],< 1 mg/kg/day
same,LOAEL,dog [2]; [23],> 3 mg/kg/day
same,NOAEL,dog [2]; [23],≥ 3 mg/kg/day
same,LEL,dog [2]; [24],0.3 mg/kg/day
same,NEL,dog [2]; [24],< 0.3 mg/kg/day
O=C(O)C1C(C(=O)O)C2(Cl)C(Cl)=C(Cl)C1(Cl)C2(Cl)Cl (stereo not drawn) [Chlorendic acid],LEL,rat [3],27 mg/kg/day
same,LOAEL,rat [3],27 mg/kg/day
same,NEL,rat [3],< 27 mg/kg/day
same,NOAEL,rat [3],< 27 mg/kg/day
same,LEL,mouse [4],188 mg/kg/day
same,LOAEL,mouse [4],188 mg/kg/day
same,NEL,mouse [4],< 188 mg/kg/day
same,NOAEL,mouse [4],< 188 mg/kg/day
same,LEL,rat [5]; [25],63 mg/kg/day
same,LOAEL,rat [5]; [25],63 mg/kg/day
same,NEL,rat [5]; [26],31 mg/kg/day
same,NOAEL,rat [5]; [26],31 mg/kg/day
same,LOAEL,mouse [6]; [27],89 mg/kg/day
same,NOAEL,mouse [6]; [27],< 89 mg/kg/day
same,LEL,mouse [6]; [28],89 mg/kg/day
same,NEL,mouse [6]; [28],< 89 mg/kg/day
C[C@]12CCC(=O)C=C1CC[C@@H]1[C@@H]2CC[C@@]2(C)[C@H]1CC[C@]2(C)O [17-Methyltestosterone],LOAEL,dog [7]; [29],> 6 mg/kg/day
same,NOAEL,dog [7]; [29],≥ 6 mg/kg/day
same,LEL,dog [7]; [30],2 mg/kg/day
same,NEL,dog [7]; [30],< 2 mg/kg/day
same,LEL,mouse [8],5 mg/kg/day
same,LOAEL,mouse [8],> 5 mg/kg/day
same,NEL,mouse [8],< 5 mg/kg/day
same,NOAEL,mouse [8],≥ 5 mg/kg/day
same,LEL,rat [9]; [31],100 mg/kg/day
same,LOAEL,rat [9]; [31],> 600 mg/kg/day
same,NEL,rat [9]; [31],10 mg/kg/day
same,NOAEL,rat [9]; [31],≥ 600 mg/kg/day
same,LOAEL,rat [9]; [32],> 200 mg/kg/day
same,NOAEL,rat [9]; [32],≥ 200 mg/kg/day
same,LEL,rat [9]; [33],10 mg/kg/day
same,NEL,rat [9]; [33],< 10 mg/kg/day
same,LOAEL,rat [10]; [34],> 80 mg/kg/day
same,NOAEL,rat [10]; [34],≥ 80 mg/kg/day
same,LEL,rat [10]; [35],5 mg/kg/day
same,NEL,rat [10]; [35],< 5 mg/kg/day
same,LOAEL,rat [10]; [36],> 80 mg/kg/day
same,NOAEL,rat [10]; [36],≥ 80 mg/kg/day
same,LEL,rat [10]; [37],5 mg/kg/day
same,NEL,rat [10]; [37],< 5 mg/kg/day
same,LOAEL,rat [11]; [38],> 40 mg/kg/day
same,NEL,rat [11]; [38],2 mg/kg/day
same,NOAEL,rat [11]; [38],≥ 40 mg/kg/day
same,LEL,rat [11]; systemic / pathology gross / testes / reduced size + systemic / in life observation / body weight / body weight gain + systemic / in life …,10 mg/kg/day
CCO/N=C(\CC)C1=C(O)CC(c2c(C)cc(C)cc2C)CC1=O (stereo not drawn) [Tralkoxydim],LOAEL,hamster [12]; systemic / in life observation / body weight / body weight gain + systemic / organ weight / liver / absolute,650 mg/kg/day
same,NEL,hamster [12]; [39],122 mg/kg/day
same,NOAEL,hamster [12]; [39],328 mg/kg/day
same,LEL,hamster [12]; systemic / pathology microscopic / liver / proliferation,328 mg/kg/day
same,LEL,rat [13],205 mg/kg/day
same,LOAEL,rat [13],205 mg/kg/day
same,NEL,rat [13],20.5 mg/kg/day
same,NOAEL,rat [13],20.5 mg/kg/day
same,LEL,dog [14]; [40],5 mg/kg/day
same,LOAEL,dog [14]; [40],5 mg/kg/day
same,NOAEL,dog [14]; [40],0.5 mg/kg/day
same,NEL,dog [14]; systemic / clinical chemistry / cholesterol / cholesterol + systemic / clinical chemistry / protein / protein + systemic / clinical …,0.5 mg/kg/day
same,LOAEL,rat [15]; [41],118 mg/kg/day
same,NEL,rat [15]; [41],2.3 mg/kg/day
same,NOAEL,rat [15]; [41],23.1 mg/kg/day
same,LEL,rat [15]; systemic / pathology microscopic / pituitary gland / adenoma,23.1 mg/kg/day
same,LEL,dog [16]; [42],0.5 mg/kg/day
same,LOAEL,dog [16]; [42],5 mg/kg/day
same,NEL,dog [16]; [42],< 0.5 mg/kg/day
same,NOAEL,dog [16]; systemic / clinical chemistry / aminopyrine-n-demethylase / aminopyrine-n-demethylase + systemic / clinical chemistry / albumin / albumin + …,0.5 mg/kg/day
same,LEL,hamster [17],337 mg/kg/day
same,LOAEL,hamster [17],337 mg/kg/day
same,NEL,hamster [17],41 mg/kg/day
same,NOAEL,hamster [17],41 mg/kg/day
same,LEL,rabbit,100 mg/kg/day
same,LOAEL,rabbit,100 mg/kg/day
same,NEL,rabbit,20 mg/kg/day
same,NOAEL,rabbit,20 mg/kg/day
same,LOAEL,hamster [18]; [43],> 672 mg/kg/day
same,NOAEL,hamster [18]; [43],≥ 672 mg/kg/day
same,LEL,hamster [18]; [44],27.8 mg/kg/day
same,NEL,hamster [18]; [44],< 27.8 mg/kg/day
same,LOAEL,rat [19]; [45],30 mg/kg/day
same,NEL,rat [19]; [45],1 mg/kg/day
same,NOAEL,rat [19]; [45],3 mg/kg/day
same,LEL,"rat [19]; group: developmental, developmental / developmental malformation / bone / delayed ossification",3 mg/kg/day
same,LOAEL,"rat [19]; group: maternal, systemic / in life observation / food consumption / food consumption + systemic / in life observation / mortality / mortality",200 mg/kg/day
same,LEL,rat [19]; [46],200 mg/kg/day
same,NEL,rat [19]; [46],30 mg/kg/day
same,NOAEL,rat [19]; [46],30 mg/kg/day
same,LOAEL,"rat [20]; group: developmental, developmental / developmental malformation / bone / incomplete ossification",30 mg/kg/day
same,LEL,"rat [20]; group: developmental, developmental / developmental malformation / bone / incomplete ossification + developmental / developmental malformation / bone / [other]",30 mg/kg/day
same,NEL,rat [20]; [47],3 mg/kg/day
same,NOAEL,rat [20]; [47],3 mg/kg/day
same,LEL,rat [20]; [48],200 mg/kg/day
same,LOAEL,rat [20]; [48],200 mg/kg/day
